Structures are written as SMILES. Structures can show the parent of a compound that is named as a salt.

Usually inhibition stands for the percentage by which the read-out fell short of the control.

The first assay deals with T1, h-NK1 receptors (Homo sapiens, UniProt P25103).
T1 construct: expressed in transfected cells; host or cells: CHO cells, permanently expressing; crude membranes
T1 sequence (P25103 whole entry): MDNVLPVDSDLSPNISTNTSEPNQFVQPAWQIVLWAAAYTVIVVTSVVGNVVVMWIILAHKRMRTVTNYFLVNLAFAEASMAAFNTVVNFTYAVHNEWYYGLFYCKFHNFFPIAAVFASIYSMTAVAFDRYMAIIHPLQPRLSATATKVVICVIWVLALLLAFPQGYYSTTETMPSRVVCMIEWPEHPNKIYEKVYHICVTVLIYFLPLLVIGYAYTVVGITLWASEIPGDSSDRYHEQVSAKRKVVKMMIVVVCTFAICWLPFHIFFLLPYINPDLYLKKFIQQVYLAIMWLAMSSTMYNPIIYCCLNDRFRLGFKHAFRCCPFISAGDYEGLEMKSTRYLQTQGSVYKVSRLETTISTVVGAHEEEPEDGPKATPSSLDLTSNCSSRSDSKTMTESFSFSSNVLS
Briefly: 125I-BH-Substance P binding to h-NK1 receptors. Particulars: read-out: inhibition rate of 125I-BH-Substance P binding to h-NK1 receptors. The method, then:
(a) Crude CHO cell membrane preparation
CHO cells permanently expressing h-NK1 receptors were harvested and homogenized with a Dounce homogenizer at 4° C. in a buffer (0.25 M sucrose, […] Tris-HCl pH 7.4, 10 mM MgCl2, 1 mM EDTA, 5 μg/ml p-APMSF). The homogenate was centrifuged (500×g, 10 minutes), and the pellet was resuspended in the same buffer, homogenized, and centrifuged. The two supernatants were combined and centrifuged (100,000×g, 1 hour). The crude cell membranes thus isolated were resuspended in buffer (25 mM Tris-HCl pH 7.4, 10 mM MgCl2, 1 mM EDTA, 5 μg/ml p-APMSF) and stored at -80° C. until use.
At the end of the incubation period, the content was quickly filtered over a Wahtman GF/C glass filter (pretreated with 0.1% polyethylene imine for 3 hours prior to use) under aspiration. Each of the filters was then washed four times with 5 ml of buffer (50 mM Tris-HCl pH 7.4, 5 mM MnCl2). […] All data presented are specific binding defined as that displaceable by 3 μM unlabeled Substance P.
For the compound `CN1CCCN(C(=O)CN2C[C@@H](Cc3c[nH]c4ccccc34)N(C(=O)c3cc(C(F)(F)F)cc(C(F)(F)F)c3)CC2=O)CC1` [Example 6, (5R)-4-[3,5-bis(trifluoromethyl)benzoyl]-5-(1H-indol-3-ylmethyl)-1-[(4-methyl-1-homopiperazinyl)carbonylmethyl]-piperazin-2-one hydrochloride], the inhibition at 0.1 µg/mL was greater than 90%.

Still in this assay, the particulars now being: test compound at 0.1 μg/ml; crude membranes of CHO cells expressing h-NK1 receptors; read-out: inhibition rate of 125I-BH-Substance P binding to h-NK1 receptors.
For `NC(=O)CN1C[C@@H](Cc2c[nH]c3ccccc23)N(C(=O)c2cc(C(F)(F)F)cc(C(F)(F)F)c2)CC1=O` [Example 5, (5R)-4-[3,5-bis(trifluoromethyl)benzoyl]-1-(carbamoylmethyl)-5-(1H-indol-3-ylmethyl)piperazin-2-one], the inhibition at 0.1 µg/mL is greater than 90%. Regarding `O=C(CCCN1C[C@@H](Cc2c[nH]c3ccccc23)N(C(=O)c2cc(C(F)(F)F)cc(C(F)(F)F)c2)CC1=O)N1CCC(N2CCCCC2)CC1` [Example 7-3], the inhibition at 0.1 µg/mL is greater than 90%. With `CN1CCCN(C(=O)CCCN2C[C@@H](Cc3c[nH]c4ccccc34)N(C(=O)c3cc(C(F)(F)F)cc(C(F)(F)F)c3)CC2=O)CC1` [Example 7-4], the inhibition at 0.1 µg/mL was greater than 90%.

`CCOC(=O)CCCN1C[C@@H](Cc2c[nH]c3ccccc23)N(C(=O)c2cc(C(F)(F)F)cc(C(F)(F)F)c2)CC1=O` [Example 2, (5R)-4-[3,5-bis(trifluoromethyl)benzoyl]-1-[3-(ethoxycarbonyl)propyl]-5-(1H-indol-3-ylmethyl)piperazin-2-one]: the inhibition at 0.1 µg/mL is greater than 90%. Same read-out and setting: as for `CCOC(=O)CN1C[C@@H](Cc2c[nH]c3ccccc23)N(C(=O)c2cc(C(F)(F)F)cc(C(F)(F)F)c2)CC1=O` [Example 3, (5R)-4-[3,5-bis(trifluoromethyl)benzoyl]-1-(ethoxycarbonylmethyl)-5-(1H-indol-3-ylmethyl)piperazin-2-one], the figure is greater than 90%. As for `O=C(CN1C[C@@H](Cc2c[nH]c3ccccc23)N(C(=O)c2cc(C(F)(F)F)cc(C(F)(F)F)c2)CC1=O)N1CCC(N2CCCCC2)CC1` [Example 7-1], the inhibition at 0.1 µg/mL is greater than 90%.

The values above are taken from patent US5939413A, “Piperazine derivatives” (Fujisawa Pharmaceutical Co., Ltd., priority 1995, dated 1999).
